Assay results from patent publication US20230410294A1, “METHOD FOR GRADING THE NUCLEAR MORPHOLOGY OF A TUMOR” (Nanyang Technological University, priority 2020, published 2023).
“Also recorded” adds a separate entry of the source.

Tests used:
Assay type in all cases: cell-based
SK-N-SH cells [1] = experiment: Nanopillar-guided subnuclear anisotropicity after anti-cancer drug treatment; settings: SK-N-SH on nanopillar arrays, 24 h, DOX 1 μM, Etop 10 μM; for fraction of cells with dominant isotropic ring features and low deformation coherency: DMSO control 0.262±0.160, FIG. 19e; for pillar coherency: DMSO control 0.3853±0.1448, FIG. 19d
Experimental: (§1) Nanopillar arrays were cleaned and sterilized by air plasma and UV exposure before cell culture. The nanochip was then coated with fibronectin ([…], Sigma-Aldrich) for 30 minutes under 37° C. The SK-N-SH cells were seeded on the nanostructures after coating and grown in Eagle's Minimum Essential Medium (MEM) supplemented with 2 mM L-glutamine (Gibco), 1% MEM Non-Essential Amino Acids (NEAA) (Gibco), 10% fetal bovine serum (FBS) (Life Technologies) and 100 U ml^−1 penicillin and […] streptomycin (Life Technologies) in a standard incubator at 37° C. with 5% CO2. Drug treatment was done after overnight incubation, the SK-N-SH cells on nanostructures are treated with Etoposide (ETOP) (Sigma), Doxorubicin (DOX) (Sigma) or Dimethyl sulfoxide (DMSO) (Sigma). After 24-hour incubation, the treated cells and untreated cells were fixed with 4% Paraformaldehyde (PFA) Solution in PBS (Boster biological technology AR1068) for 15 minutes for subsequent immunostaining.
The nuclear morphology in SK-N-SH cells were visualized by immunostaining lamin A and lamin B1. The lamin A and vimentin level in cells were characterized by immunostaining lamin A and vimentin. Cells were cultured on nanopillars and incubated overnight before fixation with pre-warmed 4% Paraformaldehyde (PFA) in PBS (Boster biological technology AR1068) for 15 minutes at room temperature. After washing with PBS for three times, the cells were permeabilized in 0.5% Triton X-100 (Sigma) in PBS for 15 minutes, followed by blocking with 5% bovine serum albumin (BSA) (Sigma) in PBS for 1 hour. Subsequently, samples were incubated with primary antibodies (anti-lamin A, Abcam, ab26300; anti-lamin B1, Abcam, ab16048; anti-vimentin, Sigma, V5255.) at 1:400 dilution at room temperature for 1 hour or 4° C. overnight. […]
(§2) Fluorescence imaging and live cell imaging were done by confocal microscopy (Zeiss LSM 800 with Airyscan or a spinning disc confocal microscope (SDC) that is built around a Nikon Ti2 inverted microscope equipped with a Yokogawa CSU-W1 confocal spinning head). […] The live cell imaging and subsequent fluorescence imaging were done by SDC and the image acquisition and processing was controlled by MetaMorph (Molecular Device) software.
The guided subnuclear irregularities were characterized by measurement of their anisotropicity. […] After thresholding the cropped images of lamin A channel using the masks, the coherency, an indicator for anisotropy property, of the nanopillar-guided nuclear features was measured using orientationJ (a plugin function in ImageJ).

SK-N-SH cells [2] = experiment: Lamin A level by immunostaining after anti-cancer drug treatment; settings: SK-N-SH cells remaining attached after 24 h; DOX 1 μM, Etop 10 μM; vs DMSO; FIG. 19a-b
Experimental: as §1, with “After 24-hour incubation, the treated cells and untreated cells were fixed with 4% Paraformaldehyde (PFA) Solution in PBS (Boster biological technology AR1068) for 15 minutes for subsequent immunostaining.” left out
as §2

MDA-MB-231 cells [3] = experiment: Nanopillar-guided subnuclear deformation anisotropy (coherency) after drug treatment
MCF-7 cells [4] = experiment: as above; settings: MCF-7 on nanopillar arrays, treated vs DMSO; FIG. 9c-d
Experimental: Prior to cell culture, the nanostructured chips were cleaned by air plasma for 10 min and exposed to UV for 15 min Subsequently, the nanostructured substrates were coated with fibronectin (2 ug/ml, Sigma-Aldrich) for 30 minutes at 37° C. After coating, cell culture was performed on the substrates. All the cell lines used in this work were maintained in the Dulbecco's Modified Eagle Medium (DMEM) (Gibco) supplemented with 10% fetal bovine serum (FBS) (Life Technologies) and 1% Penicillin-Streptomycin (Life Technologies) in a standard incubator at 37° C. with 5% CO2. […]
Imaging of the fluorescently labeled cells on nanopillar arrays was performed using laser scanning confocal microscopy (Zeiss LSM 800 with Airyscan). […] Live cell imaging and the subsequent fluorescence imaging was performed using a spinning disc confocal microscope (SDC) that is built around a Nikon Tit inverted microscope equipped with a Yokogawa CSU-W1 confocal spinning head, a Plan-Apo objective (100×1.45-NA), a back-illuminated sCMOS camera (Orca-Fusion; Hamamatsu). […]
Anisotropicity of nanopillar-guided subnuclear shape irregularities was measured on nanopillar arrays. […] Then, the anisotropicity of the subnuclear shape irregularities was measured as coherency, an indicator for anisotropy property, using orientationJ (a plugin function in ImageJ).

MCF-7 cells [5] = experiment: Wound healing assay (migration rate); settings: MCF-7, treatment for 24 h vs DMSO, p value=0.7440; FIG. 9e-f
Experimental: (§3) Cells were maintained in 35 mm dishes for each cell line until approximately 90% confluent. Scratch was made in the confluent monolayer of cells with a sterile […] pipette tip, and fresh culture medium was replaced. Brightfield microscopic pictures were taken of the same field at 24 hours. Migration rate was measured by quantifying the closure area within the same time frame using ImageJ.

MDA-MB-231 cells [6] = experiment: Wound healing assay (migration rate); settings: MDA-MB-231, treatment for 24 h vs DMSO, p value=0.0363; FIG. 9e-f
Experimental: as §3

SMILES	fraction of cells with dominant isotropic ring features and low deformation coherency (SK-N-SH cells [1])	pillar coherency (SK-N-SH cells [1])	lamin A level (in words) (SK-N-SH cells [2])	lowest concentration at which pillar coherency value and fraction of line-deformation cells responded (MDA-MB-231 cells [3]; MDA-MB-231, DMSO, 1 μM and 10 μM tested, FIG. 14)	pillar coherency value (MDA-MB-231 cells [3]; MDA-MB-231 on nanopillar arrays (500 nm diameter, 3 μm pitch), 24-hour treatment, DMSO control 0.4218±0.1305, FIG. 9c)	fraction of line-deformation cells (MDA-MB-231 cells [3]; MDA-MB-231 on nanopillar arrays, 24-hour treatment, line = cell coherency >0.3, DMSO control 0.9333±0.1155, FIG. 9d)	change in nuclear deformation coherency / line deformation (in words) (MDA-MB-231 cells [3]; MDA-MB-231 on nanopillar arrays, treated vs DMSO)	change in anisotropy (coherency) of induced nuclear deformation (in words) (MCF-7 cells [4])	migration speed change (in words) (MCF-7 cells [5])	migration rate change (in words) (MDA-MB-231 cells [6])
COc1cccc2c1C(=O)c1c(O)c3c(c(O)c1C2=O)C[C@@](O)(C(=O)CO)C[C@@H]3O[C@H]1C[C@H](N)[C@H](O)[C@H](C)O1 [DOX, doxorubicin]	0.607±0.152	0.3057±0.1862	significantly high lamin A level							
COc1cc([C@@H]2c3cc4c(cc3[C@@H](O[C@@H]3O[C@@H]5CO[C@@H](C)O[C@H]5[C@H](O)[C@H]3O)[C@H]3COC(=O)[C@H]23)OCO4)cc(OC)c1O [Etop, etoposide]	0.772±0.079	0.2606±0.1564	significantly high lamin A level							
COc1cc(/C=C/C(=O)CC(=O)/C=C/c2ccc(O)c(OC)c2)ccc1O [curcumin]				1 µM	0.2426±0.1570	0.2646±0.2695	significant decreases in nuclear deformation coherency; also recorded: significantly less line deformation	no significant coherency changes; also recorded: No significant change	do not show significant changes in migration speed	lower migration rate
